Tested on: mouse embryos
Test: Storage of mouse embryos at 4° C., survival assessed by hatching in subsequent culture
Format: cell-based
Details: for ranking of Class I and Class II solutes for hatching of stored embryos: storage 1-3 days at 4° C., Class I:Class II 1.6:1, 1.75 mM CaSO4
Method: The efficacy of the solutions of the present invention in the preservation of mouse embryos was tested as described below. As embryos consist of rapidly dividing cells, they are difficult to arrest, and therefore provide a sensitive test of storage solutions. Embryos also have the advantage that survival in storage can be assessed after 1-5 days by their ability to hatch in subsequent culture.
Viable mouse embryos were stored for periods of 1, 2 or 3 days at 4° C. in either PBS or an aqueous solution of either raffinose, trehalose, sucrose or lactose (Class I solutes), together with a solute selected from the group consisting of trimethyl amine oxide (TMAO), betaine, taurine, sarcosine, glucose, mannose, fructose, ribose, galactose, sorbitol, mannitol, inositol and taurine (Class II solutes), at a ratio of Class I solute to Class II solute of 1.6:1. Each Class I/Class II solution also contained calcium sulfate at a concentration of 1.75 mM. The solutions also contained 0.1-1% bovine serum albumin (BSA) and 25 mg/L of kanamycin sulfate. All reagents were obtained from Sigma Chemical Company (St. Louis, Mo.). Survival of the embryos was assessed by subsequent culture in Dulbecco's Modified Eagles Medium (DMEM, Life Technologies, Grand Island, N.Y.) and was expressed both as the number of live embryos present after storage and the number of embryos which hatched after 48 hours in culture at 37° C.
Mouse embryos were incubated with either sodium butyrate or a Class II solute at either, room temperature, 30° C. or 4° C. prior to storage in Solution 70/30 for up to five days at 4° C. […] Sodium butyrate replaced sodium chloride at the same concentration in PBS. FIGS. 8A, B and C show the percentage of mouse embryos hatching after 1, 2 and 3 days, respectively, in storage following pretreatment with sodium butyrate at concentrations of 5, 10 or 15 mM for either 10, 20 or 30 minutes. FIGS. 8D, E and F show the percentage of mouse embryos alive after 1, 2 and 3 days, respectively, in storage following pretreatment with sodium butyrate at concentrations of 5, 10 or 15 mM for either 10, 20 or 30 minutes. Pretreatment with sodium butyrate allowed up to 80% of embryos to hatch following three days of storage in Solution 70/30. After 5 days of storage in Solution 70/30 following pretreatment with higher concentrations of sodium butyrate, up to 70% of embryos hatched compared to 2% with no pretreatment (see FIG. 9). Embryos stored in PBS without pretreatment lasted no longer than 3 days. […] FIGS. 10A, B, C and D show the survival of mouse embryos after up to four days of storage in Solution 70/30 at 4° C. following pretreatment with 25 mM sodium butyrate for 5, 10 or 15 minutes at room temperature.

OC[C@H]1O[C@H](OC[C@H]2O[C@H](O[C@]3(CO)O[C@H](CO)[C@@H](O)[C@@H]3O)[C@H](O)[C@@H](O)[C@@H]2O)[C@H](O)[C@@H](O)[C@H]1O [Raffinose, raffinose]
ranking of Class I and Class II solutes for hatching of stored embryos: best Class I solute

C[N+](C)(C)[O-] [TMAO, trimethyl amine oxide]
ranking of Class I and Class II solutes for hatching of stored embryos: best Class II solute

C[N+](C)(C)CC(=O)O [betaine]
ranking of Class I and Class II solutes for hatching of stored embryos: second best

CCCC(=O)[O-].[Na+] [sodium butyrate]
embryos hatched (5 days of storage in Solution 70/30 after pretreatment with higher concentrations of sodium butyrate): up to 70% | embryos hatching (three days of storage in Solution 70/30 at 4° C. after pretreatment with sodium butyrate): up to 80%

OC[C@H]1O[C@H](O[C@H]2O[C@H](CO)[C@@H](O)[C@H](O)[C@H]2O)[C@H](O)[C@@H](O)[C@@H]1O [trehalose]
ranking of Class I and Class II solutes for hatching of stored embryos: second best

From patent US6743575B2, “Compositions and methods for the preservation of living tissues” (Biostore New Zealand Ltd., priority 1996, dated 2004)
